Data taken from patent US11332440B2, “4-oxo-alkylated tetramic acid compound, and preparation method thereof” (priority 2017, dated 2022).

Tested on: Drosophilae containing and expressing human Abeta42 gene
Experiment: Pavlov's olfactory-related instantaneous memory test in Drosophila
Format: in vivo
Settings: increasing dosage, compared with memantine hydrochloride; FIG. 3
From the text: Drosophila has a classical learning and memory paradigm, known as Pavlov's olfactory-related instantaneous memory. During the training program, a group of about 100 drosophilae were exposed sequentially to two odors, i.e., 3-octanol and 4-methylcyclohexanol, each odor for 60 seconds, and to fresh air for 45 seconds therebetween. During exposure to the first odor, the drosophilae were electrocuted on their feet (1.5-second pulses at 3.5-second intervals, 60V), while no electrocution was exerted during exposure to the second odor. In order to detect “instantaneous memory” (also known as “learning”), drosophilae were transferred to the selection area in the T maze immediately after training and forced to choose between the two odors. The drosophilae in each T-maze arm were then captured, anesthetized, and counted. The behavior index was calculated from the distribution of drosophilae in the T maze. […] In each experiment, the age of the control group was matched with that of the experimental group.
Pharmacodynamic evaluation of the candidate compounds: Drosophilae containing and expressing human Abeta42 gene were selected as a diseased control, and drosophilae containing but not expressing human Abeta42 gene were selected as a healthy control. The day after emergence of the drosophilae, male drosophilae were selected and fed. […] The above memory test was performed on the drosophilae on the tenth day.

Row | Compound | dose-effect relationship to improve memory of drosophilae with Alzheimer's disease
1 | O=C1C=C(OCc2cccs2)[C@H](Cc2ccccc2)N1 [Compound 51151] | eventually reaches or exceeds the level of the activity of the positive compound memantine hydrochloride
2 | O=C1C=C(OCc2ccccc2F)[C@H](Cc2ccccc2)N1 [Compound 51121] | eventually reaches or exceeds the level of the activity of the positive compound memantine hydrochloride
3 | O=C1C=C(OCc2cccc3ccccc23)[C@H](Cc2ccccc2)N1 [Compound 51311] | eventually reaches or exceeds the level of the activity of the positive compound memantine hydrochloride
4 | CC(=O)Oc1ccc(COC2=CC(=O)N[C@H]2Cc2ccccc2)cc1 [Compound 51351] | eventually reaches or exceeds the level of the activity of the positive compound memantine hydrochloride
